Laboratory results from EP4467141A1, “PYRAZOLO-QUINOLINES AS SELECTIVE INHIBITORS OF GENOTOXIC STRESS-INDUCED IKK/NF- KB PATHWAYS FOR CANCER THERAPY” (Max-Delbrück-Centrum für Molekulare Medizin in der …, priority 2023, dated 2024).

Legend:
[1] = target: T1, EPHA8 (Homo sapiens, UniProt P29322); experiment: Kinase panel study; assay type: biochemical; conditions: read-out: Percentage of inhibition; for inhibition at 1 µM: 1000nM; for inhibition at 10 µM: 10000nM
T1 construct: purchased Thermo Fisher Scientific
T1 sequence (P29322 28-1005): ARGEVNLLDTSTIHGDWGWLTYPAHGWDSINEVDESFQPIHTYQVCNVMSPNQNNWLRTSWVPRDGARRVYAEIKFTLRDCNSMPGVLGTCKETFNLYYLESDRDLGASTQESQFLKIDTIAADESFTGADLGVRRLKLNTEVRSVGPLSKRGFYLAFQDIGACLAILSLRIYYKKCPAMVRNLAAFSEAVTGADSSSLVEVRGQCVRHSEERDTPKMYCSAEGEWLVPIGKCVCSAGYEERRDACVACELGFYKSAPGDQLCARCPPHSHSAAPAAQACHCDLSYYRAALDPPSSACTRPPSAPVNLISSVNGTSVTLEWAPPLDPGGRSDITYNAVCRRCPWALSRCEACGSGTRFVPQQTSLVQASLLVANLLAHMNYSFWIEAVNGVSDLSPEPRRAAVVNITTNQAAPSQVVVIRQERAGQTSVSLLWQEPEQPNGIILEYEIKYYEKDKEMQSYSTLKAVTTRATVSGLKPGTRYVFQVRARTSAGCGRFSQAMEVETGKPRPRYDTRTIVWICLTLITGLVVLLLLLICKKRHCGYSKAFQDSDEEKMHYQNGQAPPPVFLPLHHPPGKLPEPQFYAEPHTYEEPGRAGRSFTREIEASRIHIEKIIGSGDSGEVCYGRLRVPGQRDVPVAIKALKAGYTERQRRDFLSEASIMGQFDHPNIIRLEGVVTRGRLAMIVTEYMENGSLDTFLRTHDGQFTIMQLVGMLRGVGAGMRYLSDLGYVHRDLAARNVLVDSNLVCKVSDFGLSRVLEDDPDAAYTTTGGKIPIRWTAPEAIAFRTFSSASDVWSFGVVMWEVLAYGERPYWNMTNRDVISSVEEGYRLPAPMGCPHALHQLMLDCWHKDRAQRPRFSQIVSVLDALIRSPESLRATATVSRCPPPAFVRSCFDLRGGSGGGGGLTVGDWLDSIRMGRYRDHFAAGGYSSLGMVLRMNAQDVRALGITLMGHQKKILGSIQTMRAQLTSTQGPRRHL
How it was run: (§1)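 A commercial kinase profiling service ran the assays according to its ZLyte or Adapta standard protocols. Compound was present at 10 µM or 1 µM, and kinase activity loss was expressed as percent inhibition.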

[2] = target: T2, PRKG2 (PKG2) (Homo sapiens, UniProt Q13237); experiment: Kinase panel study; assay type: biochemical; conditions: read-out: Percentage of inhibition; for inhibition at 1 µM: 1000nM; for inhibition at 10 µM: 10000nM
T2 construct: purchased Thermo Fisher Scientific
T2 sequence (Q13237 1-762): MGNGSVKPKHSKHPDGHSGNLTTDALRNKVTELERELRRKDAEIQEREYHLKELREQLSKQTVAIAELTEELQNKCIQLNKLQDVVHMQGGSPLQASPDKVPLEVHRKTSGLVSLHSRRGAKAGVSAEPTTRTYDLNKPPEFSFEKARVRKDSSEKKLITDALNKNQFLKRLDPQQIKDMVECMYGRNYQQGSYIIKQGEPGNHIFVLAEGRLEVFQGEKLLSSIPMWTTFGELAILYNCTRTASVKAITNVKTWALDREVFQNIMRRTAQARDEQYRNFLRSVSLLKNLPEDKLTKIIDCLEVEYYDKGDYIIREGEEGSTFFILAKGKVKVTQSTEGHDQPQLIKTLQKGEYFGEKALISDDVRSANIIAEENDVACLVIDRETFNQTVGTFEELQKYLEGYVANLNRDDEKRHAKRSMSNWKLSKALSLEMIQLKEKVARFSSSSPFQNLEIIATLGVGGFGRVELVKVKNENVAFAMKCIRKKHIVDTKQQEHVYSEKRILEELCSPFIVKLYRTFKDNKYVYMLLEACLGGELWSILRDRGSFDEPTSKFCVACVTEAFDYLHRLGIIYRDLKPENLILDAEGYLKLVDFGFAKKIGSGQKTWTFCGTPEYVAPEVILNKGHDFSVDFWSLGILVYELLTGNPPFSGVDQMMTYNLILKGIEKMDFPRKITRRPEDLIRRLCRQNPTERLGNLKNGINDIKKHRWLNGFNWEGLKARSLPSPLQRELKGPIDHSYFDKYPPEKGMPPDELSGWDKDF
How it was run: as §1

| SMILES | inhibition at 1 µM [1] | inhibition at 10 µM [1] | inhibition at 1 µM [2] | inhibition at 10 µM [2] |
| --- | --- | --- | --- | --- |
| COc1ccc2cc3c(N)nn(C(=O)c4cccc(N(C)C)c4)c3nc2c1 [MW05, (3-Amino-7-methoxypyrazolo[3,4-b]quinolin-1-yl)-[3-(dimethylamino)phenyl]methanone] | -1% | -9% | 7% | 0% |
| COc1ccc2c(c1OC)c(=O)n1c3ccc(O)cc3c3ccnc2c31 [MW01, 5-Hydroxy-10,11-dimethoxy-9H-benzo[c]indolo[3,2,1-ij][1,5]naphthyridin-9-one] | 4% | 21% | 47% | 72% |
